Source: patent publication US6806286B2, “Pyrrolecarboxamides and pyrrolethioamides as fungicides” (Syngenta Crop Protection, Inc., priority 2000, dated 2004)

Columns and labels:
[1] = test system: Botryts cinerea; assay: Action against Botryts cinerea/tomato (Botrytis on tomatoes); assay type: in vivo; conditions: tomato plants cv. Roter Gnom, spray 0.002% active ingredient, inoculated two days after application, assessed after 4 days incubation
Description: Action Against Botryts cinerea/tomato (Botrytis on Tomatoes)
4 week old tomato plants cv. […] Two days after application tomato plants are inoculated by spraying a spore suspension (1×10^5 conidia/ml) on the test plants. After an incubation period of 4 days at 20° C. and 95% r. h. in a growth chamber the disease incidence is assessed.

[2] = test system: Podosphaera leucotricha; assay: Action against Podosphaera leucotricha/apple (powdery mildew on apple); assay type: in vivo; conditions: apple seedlings cv. McIntosh, spray 0.002% active ingredient, inoculated one day after application, assessed after 12 days incubation
Description: Action Against Podosphaera leucotricha/apple (Powdery Mildew on Apple)
5 week old apple seedlings cv. […] One day after application apple plants are inoculated by shaking plants infected with apple powdery mildew above the test plants. After an incubation period of 12 days at 22° C. and 60% r. h. under a light regime of 14/10 h (light/dark) the disease incidence is assessed.

[3] = test system: Botryis cinerea; assay: Action against Botryis cinerea/apple (Botrytis on apple fruits); assay type: in vivo, B. cinerea; conditions: apple fruit cv. Golden Delicious, 30 μl droplets 0.002% active ingredient in drilled holes, inoculated two hours after application, assessed after 7 days
Description: Action Against Botryis cinerea/apple (Botrytis on Apple Fruits)
In an apple fruit cv. […] Two hours after application 50 μl of a spore suspension of B. cinerea (4×10^5 conidia/ml) are pipetted on the application sites. After an incubation period of 7 days at 22° C. in a growth chamber the disease incidence is assessed.

[4] = test system: Etysiphe graminis; assay: Action against Etysiphe graminis/barley (powdery mildew on barley); assay type: in vivo; conditions: barley plants cv. Express, spray 0.02% active ingredient, inoculated one day after application, assessed after 6 days incubation
Description: Action Against Etysiphe graminis/barley (Powdery Mildew on Barley)
1 week old barley plants cv. […] One day after application barley plants are inoculated by shaking powdery mildew infected plants above the test plants. After an incubation period of 6 days at 20° C./18° C. (day/night) and 60% r. h. in a greenhouse the disease incidence is assessed.

[5] = test system: Venturia Inaequalis; assay: Action against Venturia inaequalis/apple (scab on apple); assay type: in vivo; conditions: apple seedlings cv. McIntosh, spray 0.02% active ingredient, inoculated one day after application, assessed after 4+4+4 days incubation
Description: Action Against Venturia Inaequalis/apple (Scab on Apple)
4 week old apple seedlings cv. […] One day after application apple plants are inoculated by spraying a spore suspension (4×10^5 conidia/ml) on the test plants. After an incubation period of 4 days at 21° C. and 95% r. h. the plants are placed for 4 days at 21° C. and 60% r. h. in a greenhouse. After another 4 day incubation period at 21° C. and 95% r. h. the disease incidence is assessed.

[6] = test system: Boftis cinerea; assay: Action against Boftis cinerea/grape (Botrytis on grapes); assay type: in vivo; conditions: grape seedlings cv. Gutedel, spray 0.002% active ingredient, inoculated two days after application, assessed after 4 days incubation
Description: Action Against Boftis cinerea/grape (Botrytis on Grapes)
5 week old grape seedlings cv. […] Two days after application grape plants are inoculated by spraying a spore suspension (1×10^6 conidia/ml) on the test plants. After an incubation period of 4 days at 21° C. and 95% r. h. in a greenhouse the disease incidence is assessed.

[7] = test system: Septoria nodorum; assay: Action against Septoria nodorum/wheat (Septoria leaf spot on wheat); assay type: in vivo; conditions: wheat plants cv. Arina, spray 0.02% active ingredient, inoculated one day after application, assessed 11 days after inoculation
Description: Action Against Septoria nodorum/wheat (Septoria Leaf Spot on Wheat)
(§1) 1 week old wheat plants cv. […] One day after application wheat plants are inoculated by spraying a spore suspension (5×10^5 conidia/ml) on the test plants. After an incubation period of 1 day at 20° C. and 95% r. h. plants are kept for 10 days at 20° C. and 60% r.h. in a greenhouse. The disease incidence is assessed 11 days after inoculation.

[8] = test system: Puenophora teres; assay: Action against Puenophora teres/barley (net blotch on barley); assay type: in vivo; conditions: barley plants cv. Express, spray 0.002% active ingredient, inoculated two days after application, assessed 4 days after inoculation
Description: Action Against Puenophora teres/barley (Net Blotch on Barley)
as §1, with “barley” for “wheat”, “Two days” for “One day”, “(3×10^4” for “(5×10^5”, “2 days” for “1 day”, “2” for “10”, “4” for “11”

Structure (SMILES)	efficacy (disease incidence) [1]	efficacy (disease incidence) [2]	efficacy (disease incidence) [3]	efficacy (disease incidence) [4]	melting point	efficacy (disease incidence) [5]	efficacy (disease incidence) [6]	efficacy (disease incidence) [7]	efficacy (disease incidence) [8]
Cc1cn(C)cc1C(=O)Nc1ccccc1-c1ccc(F)cc1 [Compound 1.25]	strong efficacy	strong efficacy	strong efficacy	strong efficacy	148 to 149 °C	strong efficacy	strong efficacy	strong efficacy	strong efficacy
CCc1cn(CC)cc1C(=O)Nc1ccccc1-c1ccc(F)cc1 [Compound 1.266]	strong efficacy	strong efficacy	strong efficacy	strong efficacy		strong efficacy	strong efficacy	strong efficacy	strong efficacy
CC(C)c1cn(C)cc1C(=O)Nc1ccccc1-c1ccc(Cl)cc1 [Compound 1.268]	strong efficacy	strong efficacy	strong efficacy	strong efficacy		strong efficacy	strong efficacy	strong efficacy	strong efficacy
CC(C)c1cn(C)cc1C(=O)Nc1ccccc1-c1ccc(F)cc1 [Compound 1.269]	strong efficacy	strong efficacy	strong efficacy	strong efficacy		strong efficacy	strong efficacy	strong efficacy	strong efficacy
CCn1cc(C(=O)Nc2ccccc2-c2ccc(Cl)cc2)c(C(C)C)c1 [Compound 1.271]	strong efficacy	strong efficacy	strong efficacy	strong efficacy		strong efficacy	strong efficacy	strong efficacy	strong efficacy
CCn1cc(C(=O)Nc2ccccc2-c2ccc(F)cc2)c(C(C)C)c1 [Compound 1.272]	strong efficacy	strong efficacy	strong efficacy	strong efficacy		strong efficacy	strong efficacy	strong efficacy	strong efficacy
Cc1cn(C)cc1C(=O)Nc1ccsc1-c1ccc(Cl)cc1 [Compound 2.23]	strong efficacy	strong efficacy	strong efficacy	strong efficacy		strong efficacy	strong efficacy	strong efficacy	strong efficacy
Cn1cc(C(=O)Nc2ccsc2-c2ccc(Cl)cc2)c(C(F)(F)C(F)(F)F)c1 [Compound 2.190]	strong efficacy	strong efficacy	strong efficacy	strong efficacy		strong efficacy	strong efficacy	strong efficacy	strong efficacy
Cn1cc(C(=O)Nc2ccsc2-c2ccc(F)cc2)c(C(F)(F)C(F)(F)F)c1 [Compound 2.192]	strong efficacy	strong efficacy	strong efficacy	strong efficacy		strong efficacy	strong efficacy	strong efficacy	strong efficacy
Cc1cn(C)cc1C(=O)Nc1snnc1-c1ccc(F)cc1 [Compound 4.12]	strong efficacy	strong efficacy	strong efficacy	strong efficacy		strong efficacy	strong efficacy	strong efficacy	strong efficacy
Cc1cn(C)cc1C(=O)Nc1cnccc1-c1ccc(Cl)cc1 [Compound 6.10]	strong efficacy	strong efficacy	strong efficacy	strong efficacy		strong efficacy	strong efficacy	strong efficacy	strong efficacy
Cc1cn(C)cc1C(=O)Nc1cnccc1-c1ccc(F)cc1 [Compound 6.12]	strong efficacy	strong efficacy	strong efficacy	strong efficacy		strong efficacy	strong efficacy	strong efficacy	strong efficacy
Cn1cc(C(=O)Nc2cnccc2-c2ccc(Cl)cc2)c(C2CC2)c1 [Compound 6.49]	strong efficacy	strong efficacy	strong efficacy	strong efficacy		strong efficacy	strong efficacy	strong efficacy	strong efficacy
Cn1cc(C(=O)Nc2cnccc2-c2ccc(F)cc2)c(C2CC2)c1 [Compound 6.51]	strong efficacy	strong efficacy	strong efficacy	strong efficacy		strong efficacy	strong efficacy	strong efficacy	strong efficacy
